Test results as given in patent US20010041801A1, “Water soluble fullerenes with antiviral activity” (The Regents of the University of California, priority 1994, published 2001).
Values joined by “and” are separate entries in the source; they are usually repeats but may differ in a detail not shown here. Identical values can stand only once. “Also recorded” adds a separate entry of the source. Like-named read-outs stand apart in the source and are kept apart here.

Columns and labels:
[1] = Cytotoxicity in Vero cells; format: cell-based; conditions: African green monkey, Vero cells; day 3
Vero cells = test: Cytotoxicity in Vero cells; format: cell-based; conditions: b68: up to 100 μM
DNA polymerase α = DNA polymerase α (Homo sapiens, UniProt P09884); test: Inhibition of cellular DNA polymerase α, cell-free; format: biochemical; conditions: AZT-5′-triphosphate used for AZT, read-out: IC50 Polymerases: DNA Polymerase α
Sequence of DNA polymerase α (P09884 whole entry): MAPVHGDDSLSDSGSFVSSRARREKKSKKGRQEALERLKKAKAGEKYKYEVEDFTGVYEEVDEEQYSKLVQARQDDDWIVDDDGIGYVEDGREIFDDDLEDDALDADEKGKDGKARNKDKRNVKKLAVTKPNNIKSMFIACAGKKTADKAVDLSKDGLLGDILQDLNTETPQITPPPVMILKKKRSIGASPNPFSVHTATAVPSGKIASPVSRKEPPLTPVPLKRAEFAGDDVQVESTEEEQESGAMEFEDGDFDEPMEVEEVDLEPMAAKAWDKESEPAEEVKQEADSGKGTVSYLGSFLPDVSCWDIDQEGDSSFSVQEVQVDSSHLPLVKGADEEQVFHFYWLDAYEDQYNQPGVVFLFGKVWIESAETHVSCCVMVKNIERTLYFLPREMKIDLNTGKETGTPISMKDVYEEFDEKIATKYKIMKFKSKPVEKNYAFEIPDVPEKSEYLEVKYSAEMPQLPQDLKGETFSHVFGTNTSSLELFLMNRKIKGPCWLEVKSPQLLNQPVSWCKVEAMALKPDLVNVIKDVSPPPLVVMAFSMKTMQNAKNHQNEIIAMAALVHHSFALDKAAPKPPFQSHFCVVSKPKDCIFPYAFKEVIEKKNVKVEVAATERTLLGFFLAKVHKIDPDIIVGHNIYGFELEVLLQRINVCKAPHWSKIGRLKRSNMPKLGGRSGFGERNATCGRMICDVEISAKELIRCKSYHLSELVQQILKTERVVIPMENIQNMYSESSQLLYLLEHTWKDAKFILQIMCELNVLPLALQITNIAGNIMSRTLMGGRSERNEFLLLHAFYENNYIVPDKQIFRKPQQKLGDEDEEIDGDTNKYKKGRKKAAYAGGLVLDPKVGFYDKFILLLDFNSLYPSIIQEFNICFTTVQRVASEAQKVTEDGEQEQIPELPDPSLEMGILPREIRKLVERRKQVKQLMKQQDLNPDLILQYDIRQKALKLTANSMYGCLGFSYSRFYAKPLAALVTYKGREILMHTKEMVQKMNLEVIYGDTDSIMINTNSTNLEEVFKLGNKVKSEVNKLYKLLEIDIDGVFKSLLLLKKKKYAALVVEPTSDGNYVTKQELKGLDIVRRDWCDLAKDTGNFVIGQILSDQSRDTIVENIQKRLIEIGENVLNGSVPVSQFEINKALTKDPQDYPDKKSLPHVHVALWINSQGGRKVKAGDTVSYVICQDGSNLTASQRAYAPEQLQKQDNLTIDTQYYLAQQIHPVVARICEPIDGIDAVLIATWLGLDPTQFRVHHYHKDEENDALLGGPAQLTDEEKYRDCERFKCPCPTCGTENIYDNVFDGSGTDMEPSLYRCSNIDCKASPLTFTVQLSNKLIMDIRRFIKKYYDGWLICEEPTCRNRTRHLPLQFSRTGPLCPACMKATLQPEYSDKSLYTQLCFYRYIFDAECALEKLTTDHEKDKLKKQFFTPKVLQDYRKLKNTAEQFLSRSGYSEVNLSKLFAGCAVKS
Sequence of DNA polymerase α (Q14181 whole entry partner): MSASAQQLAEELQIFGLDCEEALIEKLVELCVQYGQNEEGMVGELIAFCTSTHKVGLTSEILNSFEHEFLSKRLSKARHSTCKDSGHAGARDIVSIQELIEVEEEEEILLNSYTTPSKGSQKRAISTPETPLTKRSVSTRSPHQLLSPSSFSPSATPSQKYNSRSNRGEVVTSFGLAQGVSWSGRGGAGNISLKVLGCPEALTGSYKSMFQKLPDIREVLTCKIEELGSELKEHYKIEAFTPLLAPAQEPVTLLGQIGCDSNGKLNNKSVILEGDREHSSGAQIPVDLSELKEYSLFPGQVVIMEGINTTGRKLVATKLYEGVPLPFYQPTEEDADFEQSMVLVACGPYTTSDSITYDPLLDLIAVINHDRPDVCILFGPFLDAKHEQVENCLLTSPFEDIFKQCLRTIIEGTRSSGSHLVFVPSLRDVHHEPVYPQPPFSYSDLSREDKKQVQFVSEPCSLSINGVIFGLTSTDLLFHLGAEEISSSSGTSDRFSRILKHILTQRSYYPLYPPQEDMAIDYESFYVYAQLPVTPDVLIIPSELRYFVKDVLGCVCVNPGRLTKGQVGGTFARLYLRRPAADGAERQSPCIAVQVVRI
Sequence of DNA polymerase α (P49642 whole entry partner): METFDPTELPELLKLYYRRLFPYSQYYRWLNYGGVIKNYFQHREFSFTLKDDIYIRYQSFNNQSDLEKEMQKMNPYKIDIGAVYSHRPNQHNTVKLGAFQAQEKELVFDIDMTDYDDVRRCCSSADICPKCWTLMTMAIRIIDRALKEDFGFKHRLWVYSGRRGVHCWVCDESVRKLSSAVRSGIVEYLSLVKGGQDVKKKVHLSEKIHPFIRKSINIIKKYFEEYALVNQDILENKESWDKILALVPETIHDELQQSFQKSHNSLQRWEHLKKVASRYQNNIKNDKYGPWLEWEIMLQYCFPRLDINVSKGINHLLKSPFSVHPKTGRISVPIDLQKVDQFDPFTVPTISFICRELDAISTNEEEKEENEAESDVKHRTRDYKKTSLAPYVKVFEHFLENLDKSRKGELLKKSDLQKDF
Sequence of DNA polymerase α (P49643 whole entry partner): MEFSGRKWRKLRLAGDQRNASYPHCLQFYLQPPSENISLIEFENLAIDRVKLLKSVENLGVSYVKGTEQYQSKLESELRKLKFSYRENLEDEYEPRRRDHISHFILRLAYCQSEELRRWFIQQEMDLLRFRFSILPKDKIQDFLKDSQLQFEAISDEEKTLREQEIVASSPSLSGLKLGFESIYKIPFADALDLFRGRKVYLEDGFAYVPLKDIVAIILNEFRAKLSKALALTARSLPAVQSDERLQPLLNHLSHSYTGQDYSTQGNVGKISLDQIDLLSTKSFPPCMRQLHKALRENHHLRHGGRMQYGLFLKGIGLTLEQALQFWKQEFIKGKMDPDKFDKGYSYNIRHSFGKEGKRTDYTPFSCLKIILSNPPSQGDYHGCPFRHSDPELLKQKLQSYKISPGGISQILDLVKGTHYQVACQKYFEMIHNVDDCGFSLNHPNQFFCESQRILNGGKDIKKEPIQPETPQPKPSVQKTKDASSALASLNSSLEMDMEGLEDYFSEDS

[2] = Cytotoxicity in CEM cells; format: cell-based; conditions: human, CEM cells; cell counts on day 6
CEM cells = test: Cytotoxicity in CEM cells; format: cell-based; conditions: b68: up to 100 μM
HIV-1 and HIV-2 = test: Antiviral activity in acutely or chronically infected human lymphocytes (summary statements); format: cell-based
From the text: The water soluble C60 derivatives for inactivating HIV by interacting with HIV by Van der Waals contacts with the nonpolar HIVP surface, are substituted symmetrically with organic moieties comprising from 1 to about 20 carbon atoms each and optionally further comprising polar heteroatoms, such as oxygen and nitrogen. The preferred fullerene derivatives are diamino derivatives synthesized in three steps from C60 via a suitably substituted diphenyldiazomethane. High-resolution mass spectrometric analysis of these compounds is possible only under the mild conditions of matrix-assisted laser desorption/ionization Fourier transform mass spectrometry. Direct infrared or ultraviolet laser desorption degrades the compounds so that only C60 ions are observed, in either positive or negative mode. Virus inactivation assays are provided for confirming activity of the C60 derivatives against human immunodeficiency virus type 1 (HIV-1) and HIV-2. […] Inhibition of protease (HIVP) and reverse transcriptase (HIVRT) is also shown.
The therapeutic and prophylactic efficacy of the compounds of this invention has been shown by in vitro assays. […]

HIV-1III = test: Antiviral activity in chronically infected H9 cells, virus RT level; format: cell-based; conditions: Human immunodeficiency virus 1, H9, 144 h, read-out: Antiviral Activity (EC50) in H9 cells infected with HIV-1III
Experimental: (§1) Compound 2c was evaluated for antiviral activity in cells acutely and chronically infected with human immunodeficiency virus (HIV). Reverse transcriptase (RT) levels associated with virus were determined with virus concentrated from cell culture supernatants by high-speed centrifugation to reduce the chances of drug carryover in the enzyme assay using the method described in R. F. Schinazi, et al., Antimicrob. Agents Chemother., 36:2423-2431, 1992.

[3] = Cytotoxicity in uninfected PBMC; format: cell-based, human; conditions: human, uninfected PBMC; thymidine uptake day 2 and cell counts day 6
PBMC = test: Cytotoxicity in uninfected PBMC; format: cell-based, human; conditions: b68: up to 100 μM
Cytotoxicity in H9 cells = format: cell-based, human; conditions: human, H9 cells; cell counts on day 6
H9 cells = test: Cytotoxicity in H9 cells; format: cell-based, human; conditions: b68: up to 100 μM
HIV-1LAI = test: Virus inactivation assay with cell-free virus; format: cell-based; conditions: 5 to 25 μM; cell-free virus incubated 2 hours at 37° C.; RT assay day 6
Experimental: Cell culture evaluation techniques well known in the art can also be used to determine the antiviral and antivirucidal properties of the compounds of this invention. For instance about 200 50% tissue culture infective doses of the virus to be tested and 2 ml of the compound to be tested are incubated for 2 hours at 37° C. After incubation, a growth medium is added to each tube and the tube is centrifuged at about 40,000 rpm for 30 minutes at 4° C. The supernatant is removed and the virus pellet is resuspended in fresh medium. The virions are added to human PBMC that has been stimulated for 2 days with phytohemagglutinin in 25 cm^2 flasks in a total of 10 ml of growth medium. After about six days, residual virus in the supernatant are quantitated by an RT assay such as that described by R. F. Schinazi, et al., Antimicrob. Agents Chemother., 36:2423-2431, 1992, or in Current Protocols in Molecular Biology, Ed. by F. M. Ausubel, Current Protocols, Vol. 1, §9.13.3 and in Example 8, Table 2 below.
To confirm these findings, inactivation studies with HIV-1LAI were performed. […] On day 6, residual virus in the supernatant was quantitated by an RT assay, as described previously (R. F. Schinazi, et al., Antimicrob. Agents Chemother., 36:2423-2431, 1992). […]

HIV-1 LAI = test: Antiviral activity in acutely infected human PBMC, virus RT level; format: cell-based; conditions: Human immunodeficiency virus 1, PBMC, 144 h, read-out: Antiviral Activity (EC50) in PBMC infected with HIVLAI
Experimental: as §1

HIV-2ROD = test: as above; format: cell-based; conditions: Human immunodeficiency virus 2, PBMC, 144 h, read-out: Antiviral Activity (EC50) in PBMC infected with HIV-2ROD
Experimental: as §1

O=C(O)CCC(=O)NCCc1ccc(C2(c3ccc(CCNC(=O)CCC(=O)O)cc3)C34c5c6c7c8c9c%10c(c%11c%12c3c3c5c5c%13c6c6c7c7c9c9c%14c%10c%10c%11c%11c%12c%12c3c3c5c5c%13c%13c6c6c7c9c7c9c%14c%10c%10c%11c%11c%12c3c3c5c5c%13c6c7c6c9c%10c%11c3c56)C824)cc1 [Compound 2c, bis(monosuccinimide) derivative of p,p′-bis(2-aminoethyl)diphenyl-C60]
IC50 at 3 days [1]: > 100 µM
cytotoxicity in Vero cells (Vero cells): No cytotoxicity; also recorded: noncytotoxic
IC50 (DNA polymerase α): 4.9 µM and ~5 µM
IC50 at 6 days [2]: > 100 µM
cytotoxicity in CEM cells (CEM cells): No cytotoxicity; also recorded: noncytotoxic
EC50 (HIV-1 and HIV-2; Human immunodeficiency virus 1, H9, HIV-1, summary, read-out: EC50, acutely and chronically HIV-1 infected PBMC and chronically infected H9 cells): 7 µM
EC50 (HIV-1 and HIV-2; Lymphocyte, average over assays, read-out: EC50 averaging, HIV-1 and HIV-2 in acute or chronically infected human lymphocytes): ~6 µM
EC50 (HIV-1III): 10.8 ± 8.2 µM
IC50 [3]: > 100 µM
cytotoxicity in uninfected PBMC (words) (PBMC): No cytotoxicity; also recorded: noncytotoxic
cytotoxicity in uninfected PBMC (words) (PBMC; listed as bis(monosuccinimide) derivative of p,p′-bis(2-aminoethyl)-diphenyl): no cytotoxicity
IC50 at 6 days (Cytotoxicity in H9 cells): > 100 µM
cytotoxicity in H9 cells (H9 cells): No cytotoxicity; also recorded: noncytotoxic
reduction of virus infectivity relative to untreated control (HIV-1LAI): more than 95%
EC50 (HIV-1 LAI): 7.3 ± 5.9 µM
EC50 (HIV-2ROD): 5.5 ± 3.8 µM
